# Results from patent publication US4048299A, “Anticaries confectionaries and oral health products” (William Wrigley, Jr. Co., priority 1970, dated 1977).
# What was measured:
# Streptococcus spp. KI-R [1] = assay: Acid production inhibition by aldehydes in product vehicles, broth-tube technique; type: cell-based; settings: 1 to 5 percent aldehyde
# Description: (§1) Other in vitro evaluations utilized a broth tube analysis of representative anticaries aldehydes incorporated in the vehicles of this invention against cultures of acid producing microorganisms normally present in the mouth. Standard laboratory procedures were utilized throughout to evaluate the acid production inhibition and growth inhibition over the incubation time of up to 24 hours.
# (a)Measured by broth-tube technique.
# (§2) In formulating Tables XIII - XIX representative aldehydes having anticaries activity were selected from those tested as summarized in Tables I - XII and incorporated in seven representative types of products. The products included dextrose and sucrose syrups, obtained commercially in food grades, and compressed candy, hard candy, mouthwash, toothpaste and toothpowder. The five latter products also employed food grade and reagent grade ingredients. These products were formulated by well-known and representative recipes for each type of product. The products were formed in batches of approximately 1 pound or 1 liter and contained all their normal constitutents. Aliquots of each products were blended with one of each of the representative aldehydes selected except in the case of hard candy.
# (§3) Aliquots of the aldehyde incorporating sugar syrups, confectioneries, and mouthwash formulations were added directly to assay flasks and mixed or dissolved as required. Aqueous extracts of the aldehyde incorporated in toothpaste and toothpowder were prepared and aliquots of the filtrate were added to the assay flasks.
# (§4) The assay flasks contained the necessary components for a normal growth response from the organisms employed, Lactobacillus casei ATCC 4646, originally a human oral isolate, Streptococcus spp. K1-R, human caries isolate, and a mixed oral microbial population obtained fresh from saliva on the morning prior to the initiation of each assay incubation period. The assay flask medium was dissolved in distilled water in which was added an equal volume of filter sterilized human saliva to yield a 50 percent saliva-medium combination. The medium contained all normal ingredients such as yeast extract, proteose peptone number 3 (a proprietary formula of Difco Laboratories, Detroit, Michigan) monopotassium phosphate, Tween 80 (polyoxethylene sorbitan monoleate) and water, except a carbon source. This was supplied by the aliquot of the sucrose syrup, dextrose syrup, sucrose in the compressed candy tablet and sucrose in the hard candy product. In addition, an aliquot of sucrose solution concentrate was added to the assay flask as a carbon source for evaluation of mouthwash, toothpaste, and toothpowder vehicles.
# (§5) The lower aldehydes such as glycolaldehyde, crystalline dimer; pyruvaldehyde, aqueous syrup; d,1-glyceraldehyde solution and crystalline dimer; and glutaraldehyde, employed as a 50 percent aqueous solution, are water soluble and were employed directly either as powders or aqueous solutions. The C8 to C12, longer chain aliphatic aldehydes, of which decyl and dodecyl (lauric) were selected as representative, are oil soluble and are prepared and added to the products as emulsions with four parts of Tween 20, polyoxethylene sorbitan monolaurate. The aldehyde concentrations in the products were randomly chosen between 1 to 5 percent by weight. Limits for the concentrations were selected to coincide with the data presented in Tables I - XII in order to verify that the anticaries activity of the aldehydes in the product vehicles tested was equivalent to the activity previously established for the aldehydes alone.
# [2] = system: Lactobacillus casei ATCC 4646; assay: Growth inhibition by aldehydes in product vehicles, pour-plate technique; type: cell-based; settings: 1 to 5 percent aldehyde
# Description: as §1
# (§6) (b)Measured by pour-plate technique.
# as §2, §3, §4, §5
# Streptococcus spp. KI-R [3] = assay: as above; type: cell-based; settings: 1 to 5 percent aldehyde
# Description: as §1, §6, §2, §3, §4, §5
# [4] = system: Mixed human oral microorganisms; assay: as above; type: cell-based; settings: 1 to 5 percent aldehyde
# Description: as §1, §6, §2, §3, §4, §5
# [5] = In vivo caries evaluation, Osborne-Mendel strain 1 rat; set-up: species or system rat (Osborne-Mendel strain 1); Caries Score, Mean Incidence / Caries Score, Mean Extent: scale not given here; settings: Table II, 90 days
# From the text: Standard laboratory techniques were used to complie the data presented. In each case the aldehyde was incorporated into each specimen's food in a one percent, by weight, quantity, over a period of several weeks. In all cases, caries reduction was noted.
# The aldehydes tested in vivo were pyruvaldehyde, d,1-glyceraldehyde, crystalline dimer, glycolaldehyde, octanaldehyde, nonanaldehyde, decanaldehyde, undecylenic aldehyde, and lauric aldehyde. The polyaldehydes tested were dialdehyde starch, dialdehyde starch 50 percent oxidized, dialdehyde starch 90 percent oxidized, and dialdehyde galactomannan gum.
# ^(a) Agents were incorporated in the diet at a 1 percent level.
# [6] = in compressed candy tablet, 2 h incubation
# [7] = in compressed candy tablet, 5 h incubation
# [8] = in compressed candy tablet, 24 h incubation
# [9] = in dextrose syrup, 2 h incubation
# [10] = in dextrose syrup, 5 h incubation
# [11] = in dextrose syrup, 24 h incubation
# [12] = in sucrose syrup, 2 h incubation
# [13] = in sucrose syrup, 5 h incubation
# [14] = in sucrose syrup, 24 h incubation
# [15] = in toothpaste (aqueous extract), 2 h incubation
# [16] = in toothpaste (aqueous extract), 5 h incubation
# [17] = in toothpaste (aqueous extract), 24 h incubation
# [18] = Student's test, 95 percent confidence limit
smiles,measurement,setting,value
CCCCCCCCCC=O [Decanaldehyde],Acid Production Inhibition,Streptococcus spp. KI-R [1]; [6],50 Per Cent
same,Acid Production Inhibition,Streptococcus spp. KI-R [1]; [7],85 Per Cent
same,Acid Production Inhibition,Streptococcus spp. KI-R [1]; [8],98 Per Cent
same,Acid Production Inhibition,Streptococcus spp. KI-R [1]; [9],35 Per Cent
same,Acid Production Inhibition,Streptococcus spp. KI-R [1]; [10],91 Per Cent
same,Acid Production Inhibition,Streptococcus spp. KI-R [1]; [11],89 Per Cent
same,Acid Production Inhibition,Streptococcus spp. KI-R [1]; [12],75 Per cent
same,Acid Production Inhibition,Streptococcus spp. KI-R [1]; [13],98 Per cent
same,Acid Production Inhibition,Streptococcus spp. KI-R [1]; [14],100 Per cent
same,Acid Production Inhibition,Streptococcus spp. KI-R [1]; [15],40 Per cent
same,Acid Production Inhibition,Streptococcus spp. KI-R [1]; [16],100 Per cent
same,Acid Production Inhibition,Streptococcus spp. KI-R [1]; [17],67 Per cent
same,Growth Inhibition,[2]; [6],99.98 Per Cent
same,Growth Inhibition,[2]; [7],100 Per Cent
same,Growth Inhibition,[2]; [8],100 Per Cent
same,Growth Inhibition,[2]; [9],99.7 Per Cent
same,Growth Inhibition,[2]; [10],100 Per Cent
same,Growth Inhibition,[2]; [11],100 Per Cent
same,Growth Inhibition,[2]; [12],99.5 Per cent
same,Growth Inhibition,[2]; [13],> 99.9 Per cent
same,Growth Inhibition,[2]; [14],> 99.99 Per cent
same,Growth Inhibition,[2]; [15],0 Per cent
same,Growth Inhibition,[2]; [16],N.S.
same,Growth Inhibition,[2]; [17],0 Per cent
same,Growth Inhibition,Streptococcus spp. KI-R [3]; [6],N.S.
same,Growth Inhibition,Streptococcus spp. KI-R [3]; [7],N.S.
same,Growth Inhibition,Streptococcus spp. KI-R [3]; [8],N.S.
same,Growth Inhibition,Streptococcus spp. KI-R [3]; [9],100 Per Cent
same,Growth Inhibition,Streptococcus spp. KI-R [3]; [10],100 Per Cent
same,Growth Inhibition,Streptococcus spp. KI-R [3]; [11],100 Per Cent
same,Growth Inhibition,Streptococcus spp. KI-R [3]; [12],> 99.99 Per cent
same,Growth Inhibition,Streptococcus spp. KI-R [3]; [13],> 99.99 Per cent
same,Growth Inhibition,Streptococcus spp. KI-R [3]; [14],N.S.
same,Growth Inhibition,Streptococcus spp. KI-R [3]; [15],0 Per cent
same,Growth Inhibition,Streptococcus spp. KI-R [3]; [16],N.S.
same,Growth Inhibition,Streptococcus spp. KI-R [3]; [17],N.S.
same,Growth Inhibition,[4]; [6],> 99.99 Per Cent
same,Growth Inhibition,[4]; [7],> 99.99 Per Cent
same,Growth Inhibition,[4]; [8],100 Per Cent
same,Growth Inhibition,[4]; [9],> 99.99 Per Cent
same,Growth Inhibition,[4]; [10],100 Per Cent
same,Growth Inhibition,[4]; [11],100 Per Cent
same,Growth Inhibition,[4]; [12],> 99.99 Per cent
same,Growth Inhibition,[4]; [13],> 99.99 Per cent
same,Growth Inhibition,[4]; [14],N.S.
same,Growth Inhibition,[4]; [15],N.S.
same,Growth Inhibition,[4]; [16],N.S.
same,Growth Inhibition,[4]; [17],0 Per cent
same,"Caries Score, Mean Incidence","[5]; 1 percent in diet, RCD control 19.0 (octan-), 14.1 (nonan-), 17.6 (decan-), 22.3 (undecylenic)",10.4
same,"Caries Score, Mean Extent","[5]; 1 percent in diet, RCD control 49.6 (octan-), 34.3 (nonan-), 46.0 (decan-), 54.6 (undecylenic)",24.1
same,"Caries Extent Reduction, statistical evaluation",[5]; [18],Significant
same,"Caries Incidence Reduction, statistical evaluation",[5]; [18],Significant
